We go through 23 compounds from PubChem BioAssay (NCI).

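Cultured in 96-well plates, cells were exposed to test compound for 48 hours across five concentrations. GI50 marks 50% less growth. TGI denotes the concentration required for complete inhibition of growth.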

Holding throughout (experiment): DTP human tumour cell line panel, 48 h
Experiment [1] deals with UO-31 renal.
The test system of experiment [2] is HCC-2998 colon.
Experiment [3] concerns HCT-116 colon.
Experiment [4] concerns A549 NSCLC.
Experiment [5] relates to IGROV1 ovarian.
For experiment [6], the system named is RPMI-8226 leukemia.
The test system of experiment [7] is MDA-MB-435.
The test system of experiment [8] is SNB-19 CNS.
Experiment [9] has as its system NCI-H460 lung.
For experiment [10], the system named is TK-10 renal.
Experiment [11] deals with K-562 leukemia.

Take `CCOC(=O)c1c(-c2ccc(Cl)cc2)c(C#N)c(=S)n(C2OC(CO)C(O)C(O)C2O)c1-c1ccccc1` (centres undefined): the TGI (in general, the concentration at which net growth stops) was more than 100 µM in [1]; 81.9 µM in experiment [2]; 35.3 µM in [3]; more than 100 µM in experiment [4]; more than 100 µM in experiment [5]; more than 100 µM in [6]. Also, the TGI amounted to 48.6 µM in experiment [7]; 52.4 µM in experiment [8]; 87.5 µM in experiment [9]; 84 µM in experiment [10]; 70.9 µM in [11].

In the case of `CC1=C(C#N)C(=O)N(/N=C/c2ccc(Cl)cc2)C(=O)/C1=c1\o/c(=C2/C(=O)N(/N=C/c3ccc(Cl)cc3)C(=O)C(C#N)=C2C)c2nccnc12`, the TGI in [1], in [2], in [3], in experiment [4], in experiment [5] and in experiment [6] was more than 100 µM each time. The TGI in [7], in experiment [8], in experiment [9] and in experiment [11] was more than 100 µM throughout.

Consider `COC(=O)c1cccc(C)c1C1CN=NC12Cc1c(ccc(C)c1C)C2=O` (centres undefined), for which the total growth inhibition concentration (TGI) in experiment [1] is more than 100 µM; in experiment [2] it was more than 100 µM; in experiment [3], more than 100 µM; in experiment [4] it was more than 100 µM; in [5], more than 100 µM; in [6], 96.2 µM. Moreover, the concentration for total growth inhibition (TGI) in experiment [7], in experiment [8], in [9], in experiment [10] and in [11] was more than 100 µM each time.

On to `CC(C(O)c1ccccc1)N(C)/N=N/c1nc2c([nH]1)c(=O)n(C)c(=O)n2C` (centres undefined), for which the total growth inhibition concentration (TGI) in experiment [1], in [2], in [3], in experiment [4], in experiment [5] and in experiment [6] was more than 100 µM in each case. The TGI in experiment [7], in experiment [8], in [9], in [10] and in experiment [11] was more than 100 µM each time.

In the case of `COC(=O)CC1CN(C(=O)OCc2ccccc2)C(C)(C)O1` (centres undefined), the TGI in [1], in experiment [2], in [3], in experiment [4], in experiment [5] and in experiment [6] was more than 100 µM in each case. The TGI in experiment [7], in experiment [8], in experiment [9], in experiment [10] and in experiment [11] was more than 100 µM each time.

Regarding `CC(C)CC(NC(=O)OCc1ccccc1)C(=O)NCCCCC(N)C(=O)NC(CCCCNC(=O)C(CC(C)C)NC(=O)OCc1ccccc1)C(=O)NC(CCCCNC(=O)C(CC(C)C)NC(=O)OCc1ccccc1)C(=O)NC(CCCCNC(=O)C(CC(C)C)NC(=O)OCc1ccccc1)C(=O)NC(CCCCNC(=O)C(CC(C)C)NC(=O)OCc1ccccc1)C(=O)NC(CCCCNC(=O)C(CC(C)C)NC(=O)OCc1ccccc1)C(=O)O` (centres undefined), the total growth inhibition concentration (TGI) in [1], in experiment [2], in [3], in [4], in experiment [5] and in [6] was more than 100 µM each time. For the same compound, the TGI in experiment [7], in [8], in experiment [9], in experiment [10] and in experiment [11] was more than 100 µM throughout.

Regarding `C/C(=C\c1csc(C)n1)[C@@H]1C[C@@H]2O[C@]2(C)CCC[C@H](C)[C@H](O)[C@@H](C)C(=O)C(C)(C)[C@@H](O)CC(=O)O1` (tested in a mixture with another compound), the concentration for total growth inhibition (TGI) in [1] was more than 1 µM; in experiment [3], more than 0.183 µM; in experiment [4], more than 1 µM; in experiment [5], more than 1 µM; in experiment [6], more than 0.172 µM; in experiment [7] it was 0.00284 µM. Further, the total growth inhibition concentration (TGI) in [8], in experiment [9], in experiment [10] and in experiment [11] was more than 1 µM in each case. Also, the GI50 (as a rule, the concentration giving 50% growth inhibition) is 0.00305 µM in experiment [2], 0.025 µM in experiment [8] and 0.0262 µM in experiment [11].

Regarding `CCOP(=O)(CCC(O)CNc1nc(N)nc(Cl)c1N=Nc1ccc(Cl)cc1)OCC` (centres undefined), the TGI in experiment [1] was 16.6 µM; in experiment [2], 26.1 µM; in experiment [3], 40.3 µM; in experiment [4], 33.8 µM; in [5], 33 µM; in experiment [6], 42.7 µM. In addition, the concentration for total growth inhibition (TGI) in experiment [7] was 29.9 µM; in experiment [9], 26.1 µM; in experiment [10], 54.1 µM; in experiment [11], more than 100 µM.

On to `CO[C@H]1C[C@@H]2CC[C@@H](C)[C@@](O)(O2)C(=O)C(=O)N2CCCC[C@H]2C(=O)O[C@H]([C@H](C)C[C@@H]2CC[C@@H](OC(=O)C(C)(CO)CO)[C@H](OC)C2)CC(=O)[C@H](C)/C=C(\C)[C@@H](O)[C@@H](OC)C(=O)[C@H](C)C[C@H](C)/C=C/C=C/C=C/1C`, for which the concentration for total growth inhibition (TGI) in experiment [1] is more than 100 µM; in experiment [2], more than 46.9 µM; in [3] it was more than 100 µM; in [4], more than 100 µM; in experiment [5] it was 15.3 µM; in experiment [6], more than 29.3 µM. The concentration for total growth inhibition (TGI) in [7], in experiment [8] and in experiment [11] was more than 100 µM in each case. Also, the GI50 in experiment [2] was 0.00154 µM; in [4] it was 0.95 µM; in experiment [5], 0.000946 µM; in experiment [6], less than 0.0247 µM; in experiment [7], 2.5 µM; in experiment [10], 0.359 µM.

Consider `C=CCNC(NCC=C)=C(C(Cl)=C(Cl)Cl)[N+](=O)[O-]`, for which the concentration for total growth inhibition (TGI) in [1], in experiment [2], in experiment [3], in experiment [4], in experiment [6] and in experiment [7] was more than 100 µM each time. For the same compound, the TGI in experiment [8] is more than 100 µM; in experiment [9], more than 100 µM; in experiment [11], 54.3 µM.

Turning to `Cc1cc(Cl)ccc1NC(=O)/C(CC(=O)CC(c1ccccc1)c1c(O)c2ccccc2oc1=O)=N\O` (centres undefined), the concentration for total growth inhibition (TGI) in [1], in experiment [2], in [3], in experiment [4], in experiment [5] and in experiment [7] was more than 100 µM in each case. Also, the total growth inhibition concentration (TGI) in [8], in experiment [9] and in experiment [10] was more than 100 µM in each case.

For the compound `O=c1c2cc([N+](=O)[O-])cnc2sn1-c1ccc(Oc2ccccc2)cc1`, the TGI in experiment [1], in experiment [2], in experiment [3], in [4], in experiment [5] and in experiment [6] was more than 100 µM in each case. Moreover, the TGI in [7], in [8], in experiment [9] and in experiment [10] was more than 100 µM in each case.

Take `Cn1c(=S)[nH]c2c(Cl)cc(Cl)cc2c1=O`: the TGI in [1], in experiment [2], in experiment [3], in experiment [4], in [5] and in [7] was more than 100 µM in each case. The TGI in experiment [8], in experiment [9] and in experiment [10] was more than 100 µM in each case.

Consider `CCOC(=O)C(NC(=O)NCc1ccc(F)cc1)C(F)(F)F` (centres undefined), for which the total growth inhibition concentration (TGI) in experiment [1], in experiment [2], in [3], in experiment [4], in experiment [5] and in experiment [6] was more than 100 µM in each case. The TGI in [7], in experiment [8], in experiment [10] and in experiment [11] was more than 100 µM throughout.

`Cc1nc2c(n1CCCl)C(=O)c1ccccc1C2=O`: the concentration for total growth inhibition (TGI) was 67.5 µM in experiment [2]; 36.6 µM in experiment [3]; more than 100 µM in experiment [4]; 41.6 µM in [5]; more than 100 µM in [6]; 28.6 µM in experiment [7]. The total growth inhibition concentration (TGI) in experiment [8] is more than 100 µM; in experiment [9], 65.9 µM; in [10], 78.5 µM; in experiment [11], more than 100 µM.

For `COC(=O)C1=C(C(=O)OC)C(C(=O)c2ccccc2)N2N=C(c3ccc(Cl)cc3)C=CC12` (centres undefined), the TGI in [1] is more than 100 µM; in [2], more than 100 µM; in experiment [3], more than 100 µM; in [4] it was more than 100 µM; in experiment [6] it was 80.1 µM; in [7], more than 100 µM. In addition, the TGI in [8], in [9], in experiment [10] and in experiment [11] was more than 100 µM throughout.

In the case of `CC(=O)NNc1nc(C)c(C(/C=C/c2ccccc2O)=N/NC(=O)c2ccncc2)s1`, the total growth inhibition concentration (TGI) in experiment [1], in experiment [2], in experiment [3], in [4], in experiment [5] and in [6] was more than 100 µM each time. Further, the TGI in experiment [7], in experiment [8], in experiment [9] and in [10] was more than 100 µM in each case.

As to `c1ccc2c(c1)n1c(N3CCOCC3)[n+]3ccccc3c1c1c3cccc[n+]3c(N3CCOCC3)n21`, the TGI in experiment [2], in experiment [3], in experiment [4], in experiment [5], in experiment [6] and in [7] was more than 100 µM throughout. The total growth inhibition concentration (TGI) in experiment [8], in [9], in experiment [10] and in [11] was more than 100 µM each time.

Take `CCOC(=O)C1C(C(C)C)C2(C#N)C(=N)OC1(C)C2(C#N)C#N` (centres undefined): the TGI in experiment [1], in experiment [2], in experiment [3], in experiment [4], in experiment [5] and in experiment [6] was more than 100 µM throughout. Moreover, the concentration for total growth inhibition (TGI) in experiment [7], in experiment [8], in [10] and in experiment [11] was more than 100 µM each time.

Turning to `Nc1ccccc1C(=O)NNC(=O)c1ccccc1N`, the total growth inhibition concentration (TGI) in experiment [1], in [2], in experiment [3], in experiment [4], in experiment [5] and in experiment [6] was more than 100 µM each time. In addition, the TGI in experiment [7], in experiment [8], in experiment [10] and in [11] was more than 100 µM in each case.

`COC(=O)C(Cc1ccccc1)C(=O)NC(CNC(=O)OCc1ccccc1)C(=O)OCc1ccccc1` (centres undefined): the TGI in [1] is more than 94.4 µM; in experiment [2], more than 95.4 µM; in [3], 77.9 µM; in experiment [5], more than 100 µM; in [6] it was 50.2 µM; in experiment [7], 50 µM. In addition, the concentration for total growth inhibition (TGI) in [8] is more than 100 µM; in [9], more than 100 µM; in [10], 98 µM; in experiment [11], 45 µM.

With `CC1=C(C(=O)OC23CC4CC(CC(C4)C2)C3)C(c2ccccc2OC(F)F)C(C(=O)OC23CC4CC(CC(C4)C2)C3)=C(C)N1` (centres undefined), the TGI in experiment [1], in experiment [2], in [3], in experiment [4], in experiment [5] and in experiment [6] was more than 100 µM each time. In addition, the TGI in experiment [7], in experiment [8] and in experiment [9] was more than 100 µM each time.

Consider `Cc1cc2c(cc1Cl)SC(NNC(=O)c1ccncc1)=NS2(=O)=O`, for which the TGI in experiment [2], in experiment [3], in experiment [4], in [5], in experiment [6] and in experiment [7] was more than 10 µM throughout. The TGI in experiment [8], in experiment [9], in [10] and in experiment [11] was more than 10 µM in each case.
